Laboratory results as given in the NIST ThermoML archive (doi:10.1016/j.fluid.2011.07.018).
Numbers after ± are expanded uncertainties.

Test: xn = mol fraction of the nth substance listed
Settings: 298.15 K, 101 kPa, Liquid; for speed of sound: Linear variable-path acoustic interferometer; for mass density: Vibrating tube method

Cc1cccc([N+](=O)[O-])c1 [3-nitrotoluene] + C1CCOC1
Settings	mass density [kg/m3]	speed of sound [m/s]
x2 = 0	1149.67 ± 1.2	2100 ± 3
x2 = 0.0914	1132.22 ± 1.1	2093 ± 3
x2 = 0.1522	1120.11 ± 1.1	2029 ± 3
x2 = 0.2026	1109.64 ± 1.1	1969 ± 3
x2 = 0.3146	1085.13 ± 1	1847 ± 3
x2 = 0.4209	1060.02 ± 0.99	1719 ± 3
x2 = 0.5476	1027.61 ± 0.93	1588 ± 3
x2 = 0.6024	1012.66 ± 0.91	1542 ± 3
x2 = 0.7519	968.47 ± 0.86	1438 ± 3
x2 = 0.8415	939.33 ± 0.84	1380 ± 3
x2 = 0.9324	907.47 ± 0.82	1321 ± 3

Clc1ccc(Cl)c(Cl)c1 [1,2,4-trichlorobenzene] + C1CCOC1
Settings	mass density [kg/m3]	speed of sound [m/s]
x2 = 0	1447.66 ± 1.9	1272 ± 3
x2 = 0.0358	1431.9 ± 1.9	1303 ± 3
x2 = 0.1451	1382.41 ± 1.8	1326 ± 3
x2 = 0.2456	1334.05 ± 1.7	1346 ± 3
x2 = 0.3483	1282.95 ± 1.6	1355 ± 3
x2 = 0.4617	1224.12 ± 1.4	1352 ± 3
x2 = 0.6012	1147.15 ± 1.3	1339 ± 3
x2 = 0.7076	1083.62 ± 1.2	1327 ± 3
x2 = 0.7639	1048.78 ± 1.1	1320 ± 3
x2 = 0.8162	1014.57 ± 1.1	1313 ± 3
x2 = 0.8743	975.21 ± 1.1	1305 ± 3
x2 = 0.9351	931.35 ± 1.1	1300 ± 3
x2 = 0.9642	909.82 ± 1.1	1298 ± 3

Cc1ccccc1[N+](=O)[O-] [2-nitrotoluene] + C1CCOC1
Settings	mass density [kg/m3]	speed of sound [m/s]
x2 = 0	1155.24 ± 1.2	2112 ± 3
x2 = 0.1021	1135.24 ± 1.1	2120 ± 3
x2 = 0.2146	1111.7 ± 1.1	2034 ± 3
x2 = 0.3019	1092.19 ± 1.1	1939 ± 3
x2 = 0.4211	1063.58 ± 1	1791 ± 3
x2 = 0.4509	1056.04 ± 0.99	1754 ± 3
x2 = 0.521	1037.67 ± 0.96	1677 ± 3
x2 = 0.6045	1014.59 ± 0.92	1593 ± 3
x2 = 0.7211	979.81 ± 0.87	1495 ± 3
x2 = 0.8014	953.93 ± 0.86	1433 ± 3
x2 = 0.9324	907.94 ± 0.82	1325 ± 3

Cc1cccc(Cl)c1 [3-chlorotoluene] + C1CCOC1
Settings	mass density [kg/m3]	speed of sound [m/s]
x2 = 0	1066.01 ± 0.98	1279 ± 3
x2 = 0.0662	1055.82 ± 0.97	1293 ± 3
x2 = 0.1944	1036.15 ± 0.93	1313 ± 3
x2 = 0.2787	1022.98 ± 0.9	1319 ± 3
x2 = 0.3891	1004.96 ± 0.87	1324 ± 3
x2 = 0.5228	981.71 ± 0.84	1325 ± 3
x2 = 0.6399	960.03 ± 0.82	1320 ± 3
x2 = 0.7368	941.06 ± 0.8	1313 ± 3
x2 = 0.7972	928.35 ± 0.79	1307 ± 3
x2 = 0.8601	914.63 ± 0.77	1300 ± 3
x2 = 0.9208	900.75 ± 0.76	1290 ± 3
x2 = 0.945	895.28 ± 0.76	1287 ± 3
x2 = 0.9739	888.4 ± 0.75	1282 ± 3

C1CCOC1 [tetrahydrofuran] + Cc1ccc(Cl)cc1
x1 = 1
Settings	mass density [kg/m3]	speed of sound [m/s]
–	882.09 ± 0.71	1270 ± 3

C1CCOC1 [tetrahydrofuran] + Clc1ccccc1Cl
x1 = 1
Settings	mass density [kg/m3]	speed of sound [m/s]
–	882.09 ± 0.71	1270 ± 3

C1CCOC1 [tetrahydrofuran] + Cc1cccc(Cl)c1
x1 = 1
Settings	mass density [kg/m3]	speed of sound [m/s]
–	882.09 ± 0.71	1270 ± 3

Cc1ccc(Cl)cc1 [4-chlorotoluene] + C1CCOC1
Settings	mass density [kg/m3]	speed of sound [m/s]
x2 = 0	1064.21 ± 0.97	1296 ± 3
x2 = 0.0653	1054.92 ± 0.96	1305 ± 3
x2 = 0.168	1040.16 ± 0.93	1308 ± 3
x2 = 0.3251	1015.77 ± 0.89	1308 ± 3
x2 = 0.4558	994.13 ± 0.85	1304 ± 3
x2 = 0.5489	977.7 ± 0.83	1301 ± 3
x2 = 0.6335	962.01 ± 0.82	1296 ± 3
x2 = 0.7021	948.73 ± 0.8	1293 ± 3
x2 = 0.7609	936.9 ± 0.79	1288 ± 3
x2 = 0.8226	923.96 ± 0.78	1284 ± 3
x2 = 0.906	905.08 ± 0.77	1280 ± 3
x2 = 0.941	896.99 ± 0.76	1277 ± 3

C1CCOC1 [tetrahydrofuran] + Clc1ccc(Cl)c(Cl)c1
x1 = 1
Settings	mass density [kg/m3]	speed of sound [m/s]
–	882.09 ± 0.71	1270 ± 3

C1CCOC1 [tetrahydrofuran] + Cc1ccccc1[N+](=O)[O-]
x1 = 1
Settings	mass density [kg/m3]	speed of sound [m/s]
–	882.09 ± 0.71	1270 ± 3

C1CCOC1 [tetrahydrofuran] + Clc1cccc(Cl)c1
x1 = 1
Settings	mass density [kg/m3]	speed of sound [m/s]
–	882.09 ± 0.71	1270 ± 3

C1CCOC1 [tetrahydrofuran] + Cc1cccc([N+](=O)[O-])c1
x1 = 1
Settings	mass density [kg/m3]	speed of sound [m/s]
–	882.09 ± 0.71	1270 ± 3

Clc1ccccc1Cl [1,2-dichlorobenzene] + C1CCOC1
Settings	mass density [kg/m3]	speed of sound [m/s]
x2 = 0	1300.35 ± 1.5	1269 ± 3
x2 = 0.0327	1288.55 ± 1.5	1274 ± 3
x2 = 0.155	1244.23 ± 1.4	1290 ± 3
x2 = 0.3046	1189.35 ± 1.3	1305 ± 3
x2 = 0.4457	1135.03 ± 1.2	1307 ± 3
x2 = 0.5709	1084.3 ± 1.1	1304 ± 3
x2 = 0.6161	1065.67 ± 1.1	1299 ± 3
x2 = 0.6885	1034.31 ± 1	1295 ± 3
x2 = 0.7973	984.99 ± 0.94	1283 ± 3
x2 = 0.8425	963.65 ± 0.93	1278 ± 3
x2 = 0.8852	942.63 ± 0.92	1274 ± 3
x2 = 0.9451	911.72 ± 0.91	1272 ± 3

Clc1cccc(Cl)c1 [1,3-dichlorobenzene] + C1CCOC1
Settings	mass density [kg/m3]	speed of sound [m/s]
x2 = 0	1282.82 ± 1.5	1257 ± 2
x2 = 0.0332	1272.22 ± 1.5	1259 ± 3
x2 = 0.1432	1234.54 ± 1.4	1272 ± 3
x2 = 0.272	1189.62 ± 1.3	1276 ± 3
x2 = 0.3809	1150.84 ± 1.2	1277 ± 3
x2 = 0.5198	1099.15 ± 1.1	1276 ± 3
x2 = 0.6244	1057.78 ± 1	1275 ± 3
x2 = 0.696	1027.92 ± 1	1274 ± 3
x2 = 0.8044	980.28 ± 0.93	1270 ± 3
x2 = 0.845	961.47 ± 0.93	1265 ± 3
x2 = 0.8852	941.79 ± 0.92	1265 ± 3
x2 = 0.942	912.92 ± 0.9	1266 ± 3

Cc1ccccc1Cl [2-chlorotoluene] + C1CCOC1
Settings	mass density [kg/m3]	speed of sound [m/s]
x2 = 0	1077.63 ± 1	1295 ± 3
x2 = 0.1234	1057.75 ± 0.97	1324 ± 3
x2 = 0.264	1034.49 ± 0.93	1345 ± 3
x2 = 0.3444	1020.53 ± 0.9	1347 ± 3
x2 = 0.4669	998.27 ± 0.86	1348 ± 3
x2 = 0.5809	976.32 ± 0.84	1343 ± 3
x2 = 0.7119	949.73 ± 0.81	1331 ± 3
x2 = 0.7706	937.14 ± 0.8	1326 ± 3
x2 = 0.8264	924.69 ± 0.79	1318 ± 3
x2 = 0.8858	910.9 ± 0.78	1310 ± 3
x2 = 0.9564	893.59 ± 0.76	1298 ± 3

C1CCOC1 [tetrahydrofuran] + Cc1ccccc1Cl
x1 = 1
Settings	mass density [kg/m3]	speed of sound [m/s]
–	882.09 ± 0.71	1270 ± 3
